# Columns and labels:
# [1] = tested on: whole blood; test: TNF-α secretion by E. coli stimulated whole blood; assay type: cell-based
# [2] = tested on: THP-1 cells; test: Real time quantitative PCR of cytokine mRNA, LPS-stimulated THP-1 cells; assay type: cell-based, human
# Description: Differentiated THP-1 cells were treated with LPS and RTD-1 for 2 hours as above, washed with PBS and RNA was isolated using an RNA mini kit (Zymo Research, Irvine, Calif.) or with RNeasy mini kit (Qiagen, Valencia, Calif.). RNA integrity was confirmed on agarose gels and RNA samples with A260/280 and A260/230 ratios ≧1.7 were used to generate cDNA. Briefly, 400 ng RNA was incubated with genomic DNA (gDNA) elimination (GE) buffer for 5 minutes at […]. and reverse transcribed using the RT^2 first strand synthesis kit (Qiagen). Custom PCR arrays (SA Biosciences, Frederick, Md.) containing human genes of interest and controls (for reverse transcriptase and PCR efficiency, RTC and PPC respectively) were used for simultaneous real time PCR analysis. Master mix containing cDNA and RT^2 SYBR Green™ was added to array wells. PCR cycling parameters were: 1 cycle 10 minutes at 95° C., 40 cycles of 15 seconds at 95° C., 1 minute at 60° C. on a BioRad C1000 Thermal Cycler equipped with a CFX96 real time system. Melting curve analysis confirmed a single amplicon with CT PPC=20±2 and ACT (RTC-PPC)<5 for all samples. The ACTB gene was used for normalization of gene expression and fold stimulation (compared to untreated cells) was calculated using the ΔΔCT method. Absence of gDNA in cDNA samples (CT>35) was confirmed using a human gDNA primer (SA Biosciences).
# [3] = tested on: peripheral blood leukocytes; test: Cytokine secretion by peripheral blood leukocytes stimulated with TLR agonists; assay type: cell-based, human; conditions: stimulated by agonists of TLRs 2, 4, 5, and 8
# [4] = tested on: THP-1 cells; test: Immunoblot analyses of THP-1 cell extracts; assay type: cell-based, human
# Description: (§1) Differentiated THP-1 cells (˜8×10^5 cells/2.5 ml medium) were starved in complete medium containing […] for 1 day as above, and fresh 2.5 ml RPMI 1640+1% FBS+P/S was added for 2 hours. For experiments with fresh monocytes, cells (>80% CD14+) were resuspended (˜10^6 cells/nil) in monocyte attachment medium (Promocell, Heidelberg, Germany) in wells of a 12 well plate for 2 hours at 37° C. in 5% CO2. The cells were then washed two times with RPMI medium containing 1% HI FBS and suspended overnight in RPMI medium containing 1% HI FBS. Cells were stimulated with agonists with or without RTD-1 (SEQ ID NO. 1) as described in the figure legends after which cells were washed with PBS and extracts were prepared in cell lysis buffer+1 mM PMSF. Protein content was determined using the BCA method (BioRad, San Diego, Calif.) and extracts resolved on SDS-tricine gels and transferred to nitrocellulose membrane. The membranes were probed with the indicated antibodies and developed using anti-mouse or anti-rabbit HRP conjugated secondary antibodies and detected by chemiluminescence. A phosphoprotein antibody array (Phospho-MAPK™; R&D systems Minneapolis, Minn.) was used to analyze activation of phosphoprotein kinases. Differentiated THP-1 cells (1.6×10^6 cells) were treated with 100 ng/ml LPS, 10 μg/ml RTD-1 (SEQ ID NO. 1), 100 ng/ml LPS+10 μg/ml RTD-1, or vehicle for 30 minutes. Arrays were probed with 200 μg of cell extract protein and chemiluminescence of spots from arrays or bands from western blotting was quantified using NIH ImageJ software, background subtracted, normalized and plotted.
# [5] = tested on: THP-1 cells; test: Phospho-MAPK phosphoprotein antibody array, THP-1 cells; assay type: cell-based, human
# Description: as §1
# [6] = Binding to LPS
# [7] = tested on: primary human monocytes; test: Cytokine secretion ELISA, LPS-stimulated primary human monocytes; assay type: cell-based; conditions: LPS 20 ng/ml, 4 hours, RTD-1 10 μg/ml
# Description: (§2) THP-1 monocytes (ATCC, Manassas, Va.) were cultured in RPMI 1640+10% FBS and penicillin/streptomycin (P/S). THP-1 Dual cells (Invivogen, San Diego, Calif.) which express the NF-κB reporter, secreted embryonic alkaline phosphatase (SEAP), were grown in RPMI 1640+10% HI-FBS and antibiotics. THP-1 cell differentiation was induced by treatment of cells (˜3.3×10^5 cells/ml) with 100 nM PMA and cultured for 2 days. HEK-Blue™ hTLR9 cells (Invivogen) were grown in DMEM medium containing 10% HI-FBS, P/S and normocin. Cells were cultured at 37° C. in 5% CO2. Cytokine assays. PMA-differentiated THP-1 cells (˜8×10^5 cells) cultured in 6-well plates were washed twice with complete medium and grown in fresh medium containing 1% FBS for 24 hours. Cells were washed twice with fresh medium and incubated for 2 hours prior to further manipulation. Cells were stimulated with 100 ng/ml LPS in the presence or absence of 10 μg/ml RTD-1 or vehicle (0.01% acetic acid) for 2 hours. In some experiments, cells were first incubated for 1 hour with 10 μg/ml of marimastat or vehicle (DMSO), after which LPS and/or RTD-1 were added and incubated for 2 hours as above. Peripheral blood CD14+ monocytes (Lonza, Walkersville, Md.) were thawed, rinsed with RPMI 1640 containing 10% HI FBS, P/S and normocin and then resuspended in RPMI 1640 containing 1% HI FBS plus antibiotics as above (10^6 cells/nil) for 2 hours. The cells were then stimulated for 4 hours as described in the legend. Medium was collected, clarified by centrifugation first at 250×g for 8 minutes and then at 5000×g for 5 minutes. TNF-α, IL-1β and IL-8 were quantified by ELISA (Life Technologies, Carlsbad, Calif.).
# [8] = tested on: NF-κB; test: NF-κB activity assay (SEAP reporter, Quantiblue) in THP-1 Dual cells; assay type: cell-based, human; conditions: for LPS-stimulated NF-κB activation: comparison RTD-1 versus marimastat, RTD-1 in the presence or absence of marimastat
# Description: (§3) One ml aliquots of PMA-differentiated THP-1 Dual cells (3.3×10^5 cells/nil) in 24 well tissue culture plates were starved for 1 day in complete medium with 1% HI FBS as described above. For experiments with S7 peptide, 0.5 ml cultures in 48 well plates were used. Fresh medium containing 1% HI FBS was added to the cells and after 2 hours cells were stimulated with 100 ng/ml LPS or 25 ng/ml Pam3CSK4 in the presence of RTD-1 or 0.01% acetic acid (HOAc, vehicle). In some experiments cells were pre-incubated with marimastat, Ly294002 or vehicle for 1 hour prior to addition of LPS and/or RTD-1 (SEQ ID NO. 1). Following overnight incubation, medium was clarified by centrifugation and SEAP activity was determined using Quantiblue reagent at 37° C. and measurement of absorbance at 625 nm. To test the effect of RTD-1 on TLR9-dependent NF-κB activation, 2×10^5 HEK-Blue™ hTLR9 cells/ml were cultured for 1 day in 24 well plates and stimulated overnight with ODN2006 with or without RTD-1. Medium was harvested and SEAP activity was assayed using Quantiblue™ as above. NF-κB activation was defined as fold stimulation of SEAP activity with respect to control cells.
# [9] = tested on: THP-1 macrophages; test: Cytokine secretion ELISA, LPS-stimulated differentiated THP-1 cells; assay type: cell-based, human; conditions: for release of TNF-α by LPS-stimulated THP-1 cells / secretion of IL-1β by LPS-stimulated THP-1 cells: comparison RTD-1 versus marimastat
# Description: as §2
# [10] = tested on: inflammatory cytokines; conditions: mouse models; cited from earlier work
# [11] = tested on: TLR9-dependent NF-κB activation; test: TLR9-dependent NF-κB activation (SEAP) in HEK-Blue hTLR9 cells; assay type: cell-based, human; conditions: ODN2006, RTD-1 10 μg/ml
# Description: as §3
# [12] = tested on: primary human monocytes; test: Immunoblot analyses of primary human monocyte extracts; assay type: cell-based
# Description: EDTA-anticoagulated blood was incubated with human monocyte enrichment cocktail (Stem Cell Technologies, Vancouver, BC, Canada) for 20 minutes and layered on Ficoll Paque™ in a Sepmate™ 50 tube (Stem Cell Tech). The cells were centrifuged at 1200×g for 10 minutes and the monocyte containing layer of cells was isolated, washed with PBS containing 2% HI FBS and 1 mM EDTA.
# as §1
# [13] = tested on: peripheral blood leukocytes; conditions: human peripheral blood leukocytes, diverse TLR agonists (Schaal et al 2012); cited from earlier work
# [14] = tested on: NF-κB p65; test: NF-κB DNA-binding activity (p65 ELISA) in THP-1 nuclear extracts; assay type: cell-based, human
# Description: Nuclear extracts were prepared (nuclear extraction kit; Cayman Chemical Co., Ann Arbor, Mich.) from differentiated THP-1 cells treated for 30 minutes with vehicle, LPS (100 ng/ml) or TNF-α (2 ng/ml) in the presence or absence of 10 μg/ml RTD-1 (SEQ ID NO. 1). NF-κB DNA binding was quantified by p65 ELISA (Cayman Chemical Co.). Non-specific DNA-binding, positive control extract and positive control extract treated with competitor DNA control included with the ELISA were used to confirm specificity of DNA-binding.
# [15] = LPS 100 ng/ml, RTD-1 10 μg/ml, 2 hours
# [16] = LPS 100 ng/ml + RTD-1 10 μg/ml, 30 minutes
# [17] = LPS 100 ng/ml, 2 hours, RTD-1 10 μg/ml, THP-1 macrophages
# [18] = LPS 100 ng/ml, RTD-1 10 μg/ml, 30 minutes
molecule,measurement,setting,value
"RTD-1: rhesus theta-defensin 1, macrocyclic tri-disulfide θ-defensin peptide, SEQ ID NO. 1, synthetic (cyclo(GFCRCLCRRGVCRCICTR); disulfide (positions not given here); not fully specified (bridges); also: three disulfides, places not given here; listed as Macaca mulatta)",speed of blockade of TNF-α secretion,[1],extremely rapid
same,LPS-induced mRNA expression of CCL3,[2]; [15],markedly inhibited
same,LPS-induced mRNA expression of CCL4,[2]; [15],markedly inhibited
same,LPS-induced mRNA expression of IL-1β,[2]; [15],markedly inhibited
same,LPS-induced mRNA expression of IL-8,[2]; [15],markedly inhibited
same,LPS-induced mRNA expression of TNF-α,[2]; [15],markedly inhibited
same,expression of GAPDH,[2]; addition of RTD-1,no effect
same,cytokine mRNA expression,"[2]; peptide alone, no LPS",no effect
same,secretion of several inflammatory cytokines,[3],suppressed secretion
same,JNK1/2 kinase phosphorylation,"[4]; LPS 100 ng/ml, RTD-1 10 μg/ml",inhibition
same,degradation of IκBα in LPS stimulated macrophages,"[4]; LPS 100 ng/ml, RTD-1 10 μg/ml",effective in blocking
same,p38 MAP kinase phosphorylation,"[4]; LPS 100 ng/ml, RTD-1 10 μg/ml",inhibition
same,P-Akt levels remained elevated,"[4]; RTD-1 10 μg/ml alone, for at least 4 hours",~2.5 fold
same,increase in P-Akt,"[4]; RTD-1 10 μg/ml alone, within 10 minutes of peptide treatment",6.5 fold
same,IκBα levels and phosphorylation of p38 MAP and JNK1/2 kinases,[4]; RTD-1 alone,no effect
same,LPS-induced phosphorylation of CREB,[5]; [16],to baseline levels
same,LPS-induced phosphorylation of ERK2,[5]; [16],to baseline levels
same,LPS-induced phosphorylation of H5P27,[5]; [16],to baseline levels
same,LPS-induced phosphorylation of JNK2,[5]; [16],to baseline levels
same,LPS-induced phosphorylation of p38α,[5]; [16],to baseline levels
same,LPS-induced phosphorylation of p38γ,[5]; [16],to baseline levels
same,"phosphorylation of CREB, ERK2, H5P27, JNK2, p38α and p38γ",[5]; RTD-1 alone,did not suppress
same,phosphorylation of Akt1,[5]; RTD-1 alone or in combination with LPS,selectively stimulated
same,baseline phosphorylation of other kinase targets,"[5]; RTD-1 alone, otherwise untreated cells",did not increase
same,binding to LPS,[6],binds inefficiently
same,suppression of secretion of IL-1β,[7],> 90%
same,suppression of secretion of IL-8,[7],> 90%
same,suppression of secretion of TNF-α,[7],> 90%
same,dose dependence of inhibition of NF-κB activation,"[8]; LPS 100 ng/ml, RTD-1 5 and 10 μg/ml",dose dependent
same,LPS-stimulated NF-κB activation,[8]; LPS 100 ng/ml,potent inhibitor
same,suppression of LPS-induced NF-κB activation,"[8]; LPS 100 ng/ml, simultaneous RTD-1 10 μg/ml, THP-1 Dual cells",~70%
same,direct effect on the enzymatic activity of the SEAP reporter,[8]; LPS/RTD-1 control,no direct effect
same,inhibition of Pam3CSK4-induced NF-κB activity,"[8]; Pam3CSK4 25 ng/ml, RTD-1 10 μg/ml",~70%
same,effect on NF-κB activation,"[8]; RTD-1 alone, no LPS",no effect
same,suppression of secretion of IL-1β,[9]; [17],> 90%
same,suppression of secretion of IL-8,[9]; [17],> 90%
same,suppression of secretion of TNF-α,[9]; [17],> 90%
same,release of TNF-α by LPS-stimulated THP-1 cells,[9]; LPS 100 ng/ml,blocked both cytokines effectively
same,secretion of IL-1β by LPS-stimulated THP-1 cells,[9]; LPS 100 ng/ml,blocked both cytokines effectively
same,effect on THP-1 cytokine secretion,"[9]; RTD-1 alone, no LPS",no effect
same,"inflammatory cytokines, including TNF-α, IL-1β and several chemokines",[10],reduce inflammatory cytokines
same,suppression of ODN2006-mediated NF-κB activation,[11],to baseline levels
same,degradation of IκBα in LPS stimulated monocytes,[12]; [18],reduced
same,p38 MAP kinase phosphorylation in LPS stimulated monocytes,[12]; [18],inhibited
same,degradation of IκBα,"[12]; RTD-1 alone, monocytes",did not induce
same,phosphorylation of Akt,"[12]; monocytes treated with LPS and RTD-1 or RTD-1 alone, compared to control cells",increased phosphorylation
same,p38 MAP kinase phosphorylation,"[12]; peptide alone, monocytes",no effect
same,inhibition of cytokine secretion,[13],potent inhibitor
same,"NF-κB DNA binding, LPS-stimulated",[14]; [18],to baseline levels
same,translocation of NF-κB p65 to the nucleus,"[14]; LPS stimulated macrophages, Western blot of nuclear extracts",inhibit translocation
same,suppression of TNF-α-stimulated NF-κB DNA binding,"[14]; TNF-α 2 ng/ml, RTD-1 10 μg/ml, 30 minutes, compared with TNF-α alone",~35%
"CNC(=O)[C@@H](NC(=O)[C@H](CC(C)C)[C@H](O)C(=O)NO)C(C)(C)C [marimastat, reference compound]",LPS-stimulated NF-κB activation,[8]; LPS 100 ng/ml,no effect
same,release of TNF-α by LPS-stimulated THP-1 cells,[9]; LPS 100 ng/ml,efficiently blocked
same,secretion of IL-1β by LPS-stimulated THP-1 cells,[9]; LPS 100 ng/ml,did not affect
HNP-1: human neutrophil α-defensin HNP-1 purified from neutrophils [reference compound],inhibition of NF-κB activity,"[8]; LPS 100 ng/ml, equimolar concentrations used in place of RTD-1",no inhibition

# Source: patent publication US20170035845A1, “Compositions and Methods for Inhibiting Pro-Inflammatory Cytokine Gene Expression” (The Regents of the University of California, priority 2015, published 2017)
